The supplement of paper PMC11451515

Columns and labels:
Conditions in all cases: 48 h
NOMO1 [1] = test: cell viability relative to DMSO control; higher = less cytotoxic
How it was run: (§1)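 Viability was expressed as a per-plate percentage of DMSO wells, with cell-free wells as background. Leukemia cells (NOMO1 or SEM at 500 cells/well, P12-Ichikawa at 1000 cells/well) were adapted for at least four passages in each medium and seeded in 1536-well plates (5 μl). Library compounds in DMSO were pin-dosed over an 11-point threefold series from 47 μM to 0.79 nM, and CellTiter-Glo One luminescence was read after 48 h at 37°C.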

P12-Ichikawa [2] = test: as above
How it was run: as §1

SEM cells [3] = test: as above
How it was run: as §1

NOMO1 [4] = test: AUC of viability dose-response curve (% viability x log10 dose units); higher = less sensitive
How it was run: (§2)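 Seeding of medium-adapted leukemia cells was at 500 or 1000 cells/well in 1536-well plates, followed by 48 h at 37°C with library compounds in DMSO at 11 threefold doses from 47 μM to 0.79 nM. CellTiter-Glo One luminescence was normalised per plate to DMSO and cell-free wells and fitted as a four-parameter log-logistic function of log10 dose. Area under the curve was integrated by trapezoidal rule, with curves exceeding full viability scaled and curves failing quality control removed.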

P12-Ichikawa [5] = test: as above
How it was run: as §2

SEM cells [6] = test: as above
How it was run: as §2

COc1ccccc1OCCNCC(O)COc1cccc2[nH]c3ccccc3c12 (stereo not drawn)
cell viability [%]
Conditions | NOMO1 [1] | P12-Ichikawa [2] | SEM cells [3]
HPLM + 10% dialyzed FBS, 0.000781 µM | 132 | 121 | 114
HPLM + 10% dialyzed FBS, 0.00234 µM | 124 | 124 | 131
HPLM + 10% dialyzed FBS, 0.00702 µM | 116 | 124 | 105
HPLM + 10% dialyzed FBS, 0.0211 µM | 121 | 118 | 126
HPLM + 10% dialyzed FBS, 0.0632 µM | 123 | 119 | 115
HPLM + 10% dialyzed FBS, 0.19 µM | 131 | 117 | 123
HPLM + 10% dialyzed FBS, 0.569 µM | 139 | 122 | 124
HPLM + 10% dialyzed FBS, 1.71 µM | 117 | 119 | 134
HPLM + 10% dialyzed FBS, 5.12 µM | 139 | 109 | 115
HPLM + 10% dialyzed FBS, 15.4 µM | 123 | 113 | 113
HPLM + 10% dialyzed FBS, 46.1 µM | 116 | 100 | 87.3
RPMI 5 mM glucose + 10% FBS, 0.000781 µM | 116 | – | 107
RPMI 5 mM glucose + 10% FBS, 0.00234 µM | 112 | – | 114
RPMI 5 mM glucose + 10% FBS, 0.00702 µM | 114 | – | 98.6
RPMI 5 mM glucose + 10% FBS, 0.0211 µM | 119 | – | 118
RPMI 5 mM glucose + 10% FBS, 0.0632 µM | 112 | – | 125
RPMI 5 mM glucose + 10% FBS, 0.19 µM | 103 | – | 123
RPMI 5 mM glucose + 10% FBS, 0.569 µM | 113 | – | 121
RPMI 5 mM glucose + 10% FBS, 1.71 µM | 113 | – | 133
RPMI 5 mM glucose + 10% FBS, 5.12 µM | 118 | – | 124
RPMI 5 mM glucose + 10% FBS, 15.4 µM | 113 | – | 96.3
RPMI 5 mM glucose + 10% FBS, 46.1 µM | 102 | – | 91.6
RPMI 5 mM glucose + 10% dialyzed FBS, 0.000781 µM | 123 | 119 | 115
RPMI 5 mM glucose + 10% dialyzed FBS, 0.00234 µM | 120 | 115 | 117
RPMI 5 mM glucose + 10% dialyzed FBS, 0.00702 µM | 119 | 119 | 91.8
RPMI 5 mM glucose + 10% dialyzed FBS, 0.0211 µM | 132 | 119 | 119
RPMI 5 mM glucose + 10% dialyzed FBS, 0.0632 µM | 114 | 122 | 120
RPMI 5 mM glucose + 10% dialyzed FBS, 0.19 µM | 128 | 122 | 132
RPMI 5 mM glucose + 10% dialyzed FBS, 0.569 µM | 144 | 115 | 119
RPMI 5 mM glucose + 10% dialyzed FBS, 1.71 µM | 118 | 124 | 128
RPMI 5 mM glucose + 10% dialyzed FBS, 5.12 µM | 129 | 112 | 118
RPMI 5 mM glucose + 10% dialyzed FBS, 15.4 µM | 124 | 112 | 107
RPMI 5 mM glucose + 10% dialyzed FBS, 46.1 µM | 112 | 99.6 | 93.5

AUC of viability dose-response curve
Conditions | NOMO1 [4] | P12-Ichikawa [5] | SEM cells [6]
HPLM + 10% dialyzed FBS | 476 | 461 | 467
RPMI 5 mM glucose + 10% FBS | 465 | 468 | 463
RPMI 5 mM glucose + 10% dialyzed FBS | 474 | 468 | 467

COc1ccc(CC2c3cc(OC)c(OC)cc3CC[N+]2(C)CCC(=O)OCCCCCOC(=O)CC[N+]2(C)CCc3cc(OC)c(OC)cc3C2Cc2ccc(OC)c(OC)c2)cc1OC (stereo not drawn)
cell viability [%]
Conditions | NOMO1 [1] | P12-Ichikawa [2] | SEM cells [3]
HPLM + 10% dialyzed FBS, 0.000781 µM | 91 | 86.1 | 81.2
HPLM + 10% dialyzed FBS, 0.00234 µM | 98.8 | 86.6 | 80.8
HPLM + 10% dialyzed FBS, 0.00702 µM | 116 | 86.3 | 92.9
HPLM + 10% dialyzed FBS, 0.0211 µM | 98.5 | 97.2 | 98.4
HPLM + 10% dialyzed FBS, 0.0632 µM | 109 | 90.5 | 80.3
HPLM + 10% dialyzed FBS, 0.19 µM | 98.8 | 96.3 | 94
HPLM + 10% dialyzed FBS, 0.569 µM | 93.6 | 92 | 103
HPLM + 10% dialyzed FBS, 1.71 µM | 92.2 | 96.6 | 101
HPLM + 10% dialyzed FBS, 5.12 µM | 77.1 | 97.8 | 97.1
HPLM + 10% dialyzed FBS, 15.4 µM | 29.9 | 95.1 | 22.6
HPLM + 10% dialyzed FBS, 46.1 µM | 7.29 | 86.7 | 88
RPMI 5 mM glucose + 10% FBS, 0.000781 µM | 77.8 | 82.7 | 81
RPMI 5 mM glucose + 10% FBS, 0.00234 µM | 77.8 | 86.4 | 77.6
RPMI 5 mM glucose + 10% FBS, 0.00702 µM | 85.7 | 91.6 | 94
RPMI 5 mM glucose + 10% FBS, 0.0211 µM | 89.3 | 92.1 | 78.5
RPMI 5 mM glucose + 10% FBS, 0.0632 µM | 98.6 | 92.4 | 81.1
RPMI 5 mM glucose + 10% FBS, 0.19 µM | 93 | 95.6 | 99.2
RPMI 5 mM glucose + 10% FBS, 0.569 µM | 85.7 | 99.3 | 91.2
RPMI 5 mM glucose + 10% FBS, 1.71 µM | 97.5 | 99.2 | 102
RPMI 5 mM glucose + 10% FBS, 5.12 µM | 87.5 | 85.3 | 92.1
RPMI 5 mM glucose + 10% FBS, 15.4 µM | 65 | 96.3 | 13.2
RPMI 5 mM glucose + 10% FBS, 46.1 µM | 8.84 | 83.7 | 85.1
RPMI 5 mM glucose + 10% dialyzed FBS, 0.000781 µM | 75.5 | 80.3 | 75
RPMI 5 mM glucose + 10% dialyzed FBS, 0.00234 µM | 87 | 83.5 | 73.3
RPMI 5 mM glucose + 10% dialyzed FBS, 0.00702 µM | 79.2 | 87.3 | 93.8
RPMI 5 mM glucose + 10% dialyzed FBS, 0.0211 µM | 93.3 | 91.4 | 96
RPMI 5 mM glucose + 10% dialyzed FBS, 0.0632 µM | 85.8 | 93.1 | 79.9
RPMI 5 mM glucose + 10% dialyzed FBS, 0.19 µM | 92 | 96.6 | 93.8
RPMI 5 mM glucose + 10% dialyzed FBS, 0.569 µM | 84.6 | 93.2 | 104
RPMI 5 mM glucose + 10% dialyzed FBS, 1.71 µM | 90 | 83.1 | 103
RPMI 5 mM glucose + 10% dialyzed FBS, 5.12 µM | 70 | 86.2 | 91.1
RPMI 5 mM glucose + 10% dialyzed FBS, 15.4 µM | 67.5 | 95.1 | 22.1
RPMI 5 mM glucose + 10% dialyzed FBS, 46.1 µM | 8.69 | 90.7 | 80.2

AUC of viability dose-response curve
Conditions | NOMO1 [4] | P12-Ichikawa [5] | SEM cells [6]
HPLM + 10% dialyzed FBS | 406 | 439 | 412
RPMI 5 mM glucose + 10% FBS | 390 | 437 | 394
RPMI 5 mM glucose + 10% dialyzed FBS | 375 | 427 | 401

CCC[C@@H](C=O)NC(=O)[C@H](CC(C)C)NC(=O)[C@H](CC(C)C)NC(=O)OCc1ccccc1
cell viability [%]
Conditions | NOMO1 [1] | P12-Ichikawa [2] | SEM cells [3]
HPLM + 10% dialyzed FBS, 0.000781 µM | 113 | 107 | 107
HPLM + 10% dialyzed FBS, 0.00234 µM | 121 | 108 | 111
HPLM + 10% dialyzed FBS, 0.00702 µM | 121 | 120 | 106
HPLM + 10% dialyzed FBS, 0.0211 µM | 138 | 120 | 121
HPLM + 10% dialyzed FBS, 0.0632 µM | 138 | 117 | 124
HPLM + 10% dialyzed FBS, 0.19 µM | 139 | 118 | 117
HPLM + 10% dialyzed FBS, 0.569 µM | 138 | 132 | 132
HPLM + 10% dialyzed FBS, 1.71 µM | 75.4 | 118 | 92.7
HPLM + 10% dialyzed FBS, 5.12 µM | 19.2 | 12.1 | 8.49
HPLM + 10% dialyzed FBS, 15.4 µM | 7.83 | 6.77 | 8.38
HPLM + 10% dialyzed FBS, 46.1 µM | 5.86 | 5.18 | 6.36
RPMI 5 mM glucose + 10% FBS, 0.000781 µM | 101 | 105 | 105
RPMI 5 mM glucose + 10% FBS, 0.00234 µM | 110 | 116 | 103
RPMI 5 mM glucose + 10% FBS, 0.00702 µM | 119 | 113 | 125
RPMI 5 mM glucose + 10% FBS, 0.0211 µM | 135 | 118 | 111
RPMI 5 mM glucose + 10% FBS, 0.0632 µM | 126 | 122 | 129
RPMI 5 mM glucose + 10% FBS, 0.19 µM | 127 | 121 | 130
RPMI 5 mM glucose + 10% FBS, 0.569 µM | 127 | 121 | 55.3
RPMI 5 mM glucose + 10% FBS, 1.71 µM | 35.3 | 104 | 8.42
RPMI 5 mM glucose + 10% FBS, 5.12 µM | 13.9 | 7.61 | 8.05
RPMI 5 mM glucose + 10% FBS, 15.4 µM | 8.52 | 6.3 | 8.14
RPMI 5 mM glucose + 10% FBS, 46.1 µM | 7.79 | 4.83 | 6.25
RPMI 5 mM glucose + 10% dialyzed FBS, 0.000781 µM | 115 | 104 | 97.6
RPMI 5 mM glucose + 10% dialyzed FBS, 0.00234 µM | 130 | 115 | 101
RPMI 5 mM glucose + 10% dialyzed FBS, 0.00702 µM | 124 | 120 | 120
RPMI 5 mM glucose + 10% dialyzed FBS, 0.0211 µM | 131 | 124 | 116
RPMI 5 mM glucose + 10% dialyzed FBS, 0.0632 µM | 143 | 124 | 134
RPMI 5 mM glucose + 10% dialyzed FBS, 0.19 µM | 143 | 130 | 119
RPMI 5 mM glucose + 10% dialyzed FBS, 0.569 µM | 132 | 133 | 118
RPMI 5 mM glucose + 10% dialyzed FBS, 1.71 µM | 93.1 | 133 | 45.7
RPMI 5 mM glucose + 10% dialyzed FBS, 5.12 µM | 32.4 | 14.7 | 9.18
RPMI 5 mM glucose + 10% dialyzed FBS, 15.4 µM | 9.45 | 7.12 | 8.63
RPMI 5 mM glucose + 10% dialyzed FBS, 46.1 µM | 7.3 | 5.01 | 6.53

AUC of viability dose-response curve
Conditions | NOMO1 [4] | P12-Ichikawa [5] | SEM cells [6]
HPLM + 10% dialyzed FBS | 348 | 366 | 356
RPMI 5 mM glucose + 10% FBS | 334 | 359 | 296
RPMI 5 mM glucose + 10% dialyzed FBS | 359 | 367 | 337
